# Laboratory results: US20060024691A1, “Novel pathways in the etiology of cancer” (Buck Institute for Age Research, priority 2004, published 2006)
# Like-named read-outs stand apart in the source and are kept apart here.
# Assays:
# Format in all cases: cell-based, human
# [1] = tested on: ERα Ser-118 (67 kD ERα and 52 kD ERα variant); settings: for Ser-118 phosphorylation of ER induced by treatment: MCF-7/T47D cells, charcoal-stripped media, 30 min, menadione 100 μM, estradiol 10 nM, other quinones at equitoxic doses
# Protocol: (§1) Human breast cancer cell lines MCF7 and T47D were obtained from the American Type Culture Collection (ATCC). MCF7 cells were maintained in Dulbecco's Modification of Eagle's Medium (Cellgro) supplemented with 10% fetal bovine serum (Cellgro), 1% penicillin/streptomycin (Cellgro) and 10 μg/ml insulin (Sigma). T47D cells were maintained in RPMI (Cellgro) supplemented with 10% fetal bovine serum, 1% penicillin/streptomycin and 10 μg/ml insulin. Treatment conditions for both cell lines involved plating ˜1×10^6 cells in normal media onto 10 cm dishes, attachment and growth for 24 hours followed by a change to estrogen-free culture conditions (phenol red-free DME H-16 supplemented with 10% charcoal stripped serum, 1% penicillin/streptomycin and 10 μg/ml insulin) for an additional 24 hours. Cells were then treated as indicated for 30 minutes before extract preparation. Indicated conditions involved 30 minute pretreatments.
# (§2) Following aspiration of the media and one ice cold PBS wash, cells growing on 10 cm dishes were harvested using a cell scraper and 0.7 ml of ice cold cell lyses buffer ([…], 1.5 mM MgCl2, […] KCl, 1 mM DTT, […] NaFl, 5% glycerol, 0.45% NP40 (Igepal, Sigma) and mincomplete protease inhibitors (Roche)). […] For preparation of high-salt nuclear extracts (nucleoplasm), isolated nuclei were resuspended for 20 minutes in ice cold extraction buffer (0.4 M NaCl, 25 mM Tris pH 7.5, 1 mM DTT, 20% glycerol, 10 mM NaFl and min-complete protease inhibitors (Roche)) followed by a 4° C. centrifugation at 16,000×g for 15 minutes.
# (§3) Equal amounts of protein from the various extracts were mixed with 2× SDS sample buffer (125 mM Tris pH6.8, 20% glycerol, 2% SDS, 0.28 M 2-mercaptoethanol and0.5% Bromphenol Blue), heated for 5 minutes at 90° C. and electrophoresed on NuPAGE 4-12% Bis-Tris gels (Invitrogen) using NuPAGE MOPS SDS running buffer (Invitrogen) and full range Rainbow recombinant protein molecular weight markers (Amersham Pharmacia). […] Membranes were then blocked for 30 minutes in blocking buffer (150 mM NaCl, 20 mM Tris pH 7.5, 0.3% Tween-20 and 4% Nonfat dry milk powerby weight).
# [2] = tested on: ERα Ser-167 (67 kD ERα and 52 kD ERα variant); settings: MCF7 nuclear extracts, 30 min
# Protocol: as §1, §2, §3
# ERK1/ERK2 = assay: MAPK activation: ERK1/ERK2 phosphorylation, Western blot; settings: MCF7 cells, 30 minutes
# Protocol: as §1
# For preparation of high-salt nuclear extracts (nucleoplasm), isolated nuclei were resuspended for 20 minutes in ice cold extraction buffer (0.4 M NaCl, 25 mM Tris pH 7.5, 1 mM DTT, 20% glycerol, 10 mM NaFl and min-complete protease inhibitors (Roche)) followed by a 4° C. centrifugation at 16,000×g for 15 minutes.
# Membranes were then blocked for 30 minutes in blocking buffer (150 mM NaCl, 20 mM Tris pH 7.5, 0.3% Tween-20 and 4% Nonfat dry milk powerby weight).
# NF-κB p50 = assay: Nuclear translocation of NF-κB p50 in MCF-7 cultures; settings: 10 μM, 30 min
smiles,measurement,setting,value
"CC1=CC(=O)c2ccccc2C1=O [menadione, 2-methyl-1,4-naphthoquinone]",Ser-118 phosphorylation of ER induced by treatment,[1],induced Ser-118 phosphorylation
same,Ser-118 phosphorylation of ER induced by treatment,[1]; listed as K3,contained both 67 kD and 52 kD p-Ser-118 ERα
same,ER isoform activation on longer exposure,[1]; menadione exposures 4-6 hr,further enhanced activation of the ˜52 kDa delta7 ER isoform while diminishing that of 67 kDa ER
same,Ser-167 phosphorylation of ERα induced by treatment,[2],Ser-167 phosphorylation only on the 52 kD ERα nuclear variant
same,ERK1/ERK2 phosphorylation induced by treatment,ERK1/ERK2,high level of ERK1/ERK2 phosphorylation
same,increase in nuclear translocation of NF-κB p50 vs control treated cells,NF-κB p50,> 3 fold
